This note sets out measurements from ChEMBL document CHEMBL2074502, “Effect of furanocoumarin derivatives in grapefruit juice on the uptake of vinblastine by Caco-2 cells and on the activity of cytochrome P450 3A4” (Br J Pharmacol, 2000).

Sequence of ATP-dependent translocase ABCB1 (P08183 whole entry): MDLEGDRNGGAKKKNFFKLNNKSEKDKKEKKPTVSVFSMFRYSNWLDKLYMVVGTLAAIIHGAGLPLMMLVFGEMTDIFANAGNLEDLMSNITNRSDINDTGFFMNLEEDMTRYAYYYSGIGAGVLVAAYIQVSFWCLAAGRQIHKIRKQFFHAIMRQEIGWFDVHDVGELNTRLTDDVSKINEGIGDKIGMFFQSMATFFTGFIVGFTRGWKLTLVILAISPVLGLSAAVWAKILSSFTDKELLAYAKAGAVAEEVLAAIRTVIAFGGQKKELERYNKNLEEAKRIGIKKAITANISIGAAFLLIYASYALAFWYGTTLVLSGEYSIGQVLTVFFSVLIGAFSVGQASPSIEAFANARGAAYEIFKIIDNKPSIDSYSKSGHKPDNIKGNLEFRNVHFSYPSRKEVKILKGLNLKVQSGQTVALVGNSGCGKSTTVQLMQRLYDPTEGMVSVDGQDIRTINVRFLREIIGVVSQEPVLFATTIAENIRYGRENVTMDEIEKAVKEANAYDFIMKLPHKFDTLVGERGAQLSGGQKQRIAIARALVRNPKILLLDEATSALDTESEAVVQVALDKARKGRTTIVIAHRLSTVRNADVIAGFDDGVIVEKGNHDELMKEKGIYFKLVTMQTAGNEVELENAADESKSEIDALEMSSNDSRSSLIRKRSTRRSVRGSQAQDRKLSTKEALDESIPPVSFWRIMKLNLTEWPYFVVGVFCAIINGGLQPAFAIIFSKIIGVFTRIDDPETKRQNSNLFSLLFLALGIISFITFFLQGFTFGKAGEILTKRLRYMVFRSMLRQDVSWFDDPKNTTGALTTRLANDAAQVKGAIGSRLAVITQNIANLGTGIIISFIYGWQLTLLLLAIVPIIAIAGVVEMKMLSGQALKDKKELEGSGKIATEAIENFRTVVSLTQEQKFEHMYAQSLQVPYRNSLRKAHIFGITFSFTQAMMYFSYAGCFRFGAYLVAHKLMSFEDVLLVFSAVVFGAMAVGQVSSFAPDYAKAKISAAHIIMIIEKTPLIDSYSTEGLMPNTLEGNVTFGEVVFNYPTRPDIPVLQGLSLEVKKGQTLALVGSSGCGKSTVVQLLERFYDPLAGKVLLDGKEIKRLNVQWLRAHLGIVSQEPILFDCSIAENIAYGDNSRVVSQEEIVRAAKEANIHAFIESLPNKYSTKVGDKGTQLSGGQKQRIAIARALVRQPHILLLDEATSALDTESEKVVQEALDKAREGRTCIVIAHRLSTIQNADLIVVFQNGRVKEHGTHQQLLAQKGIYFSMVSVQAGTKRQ

This data set addresses ATP-dependent translocase ABCB1 (Homo sapiens, UniProt P08183). Description: TP_TRANSPORTER: increase uptake (Vinblastine: 0.01 uM) in Caco-2 cells. It counts as functional, cell-based.
Compound `C/C(=C\COc1c2ccoc2cc2oc(=O)ccc12)CC[C@@H](O)C(C)(C)O` gave an EC200 of 0.04 µM.

`CC(C)=CCC/C(C)=C/COc1c2ccoc2cc2oc(=O)ccc12` [BERGAMOTTIN] yielded an EC200 of 0.035 µM.

In the case of `COc1c2ccoc2cc2oc(=O)ccc12` [BERGAPTEN], the EC200 came out at 0.05 µM. Next, `O=c1ccc2c(O)c3ccoc3cc2o1` [BERGAPTOL]: 0.3 µM; `C/C(=C\COc1c2ccoc2cc2oc(=O)ccc12)CCC(OC(C)(C)C(O)CC/C(C)=C/COc1c2ccoc2cc2oc(=O)ccc12)C(C)(C)O` (stereo not given) [FC726]: 0.035 µM.
